Results: ChEMBL document CHEMBL3638792, “Indazoles” (2014)

Key:
[1] = molecular target: T1, Tyrosine-protein kinase JAK3 (Homo sapiens, UniProt P52333); test: High ATP Caliper Endpoint Assay: JAK3 enzyme (Invitrogen) stock solution is made up at 4.1 uM in sterile water. JAK3 enzyme stock is diluted to 2 nM in assay buffer (10 mM HEPES free acid pH 7.5, 10 mM HEPES free base pH 7.5, 10 mM MgCL2, 0.0005% Tween-20, 0.01% BSA) containing 2 mM DTT (all supplied by Sigma). ATP is made up at 10 mM stock in sterile water and diluted to 800 uM in assay buffer. …
T1 sequence (P52333 whole entry): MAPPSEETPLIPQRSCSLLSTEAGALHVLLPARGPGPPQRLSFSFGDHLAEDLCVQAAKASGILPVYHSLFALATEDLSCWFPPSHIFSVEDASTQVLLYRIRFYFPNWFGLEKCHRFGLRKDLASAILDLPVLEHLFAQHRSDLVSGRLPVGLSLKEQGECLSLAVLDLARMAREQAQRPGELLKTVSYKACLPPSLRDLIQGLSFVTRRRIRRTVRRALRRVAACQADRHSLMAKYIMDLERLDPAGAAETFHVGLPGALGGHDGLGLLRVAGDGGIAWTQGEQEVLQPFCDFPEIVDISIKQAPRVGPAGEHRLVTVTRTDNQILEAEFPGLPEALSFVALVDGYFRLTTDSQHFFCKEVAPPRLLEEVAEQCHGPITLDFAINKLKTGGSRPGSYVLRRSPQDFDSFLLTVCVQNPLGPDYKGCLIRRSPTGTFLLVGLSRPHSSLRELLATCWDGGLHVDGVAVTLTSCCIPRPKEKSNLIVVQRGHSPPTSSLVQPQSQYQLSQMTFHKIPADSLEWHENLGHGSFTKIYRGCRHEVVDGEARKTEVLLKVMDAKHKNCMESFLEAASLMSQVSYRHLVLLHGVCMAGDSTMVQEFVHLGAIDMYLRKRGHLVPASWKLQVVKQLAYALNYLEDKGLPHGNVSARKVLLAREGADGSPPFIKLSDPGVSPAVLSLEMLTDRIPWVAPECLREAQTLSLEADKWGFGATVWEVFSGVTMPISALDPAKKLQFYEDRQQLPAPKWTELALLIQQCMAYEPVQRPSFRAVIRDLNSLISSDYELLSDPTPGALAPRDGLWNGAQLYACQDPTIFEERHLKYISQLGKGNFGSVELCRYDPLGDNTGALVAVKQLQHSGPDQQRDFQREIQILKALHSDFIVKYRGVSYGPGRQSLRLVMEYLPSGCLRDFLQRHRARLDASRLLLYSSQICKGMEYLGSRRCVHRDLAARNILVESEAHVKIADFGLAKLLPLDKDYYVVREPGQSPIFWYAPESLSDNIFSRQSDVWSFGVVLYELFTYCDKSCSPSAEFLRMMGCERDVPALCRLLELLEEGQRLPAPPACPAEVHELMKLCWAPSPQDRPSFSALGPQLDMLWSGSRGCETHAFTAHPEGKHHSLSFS

[2] = molecular target: Tyrosine-protein kinase JAK1 (Homo sapiens, UniProt P23458); test: High ATP Caliper Endpoint Assay: JAK1 enzyme (Invitrogen) stock solution is made up at 5.2 uM in sterile water. JAK1 enzyme stock is diluted to 20 nM in assay buffer (10 mM HEPES free acid pH 7.5, 10 mM HEPES free base pH 7.5, 10 mM MgCL2, 0.0005% Tween-20, 0.01% BSA) containing 2 mM DTT (all supplied by Sigma) with the addition of one protease tablet per 25 mls buffer (Roche). ATP is made up at 10 mM stock in sterile water and diluted to 5 mM in assay buffer. Peptide H236 (Caliper Life Sciences) is made up at 1.5 mM in 100% DMSO and diluted to 3 uM in assay buffer. Stop buffer comprises 140 mM HEPES, 22.5 mM EDTA (Sigma) and 0.15% coating reagent (Caliper Life Sciences).Assays are performed in Greiner polypropylene 384 well plates. Following compound preparation within the plate 10 ul of enzyme in assay buffer containing DTT is added using a Multidrop Micro. Final assay concentration of enzyme is 10 nM. Compound and enzyme are pre-incubated for 30 minutes at room temperature.
Tyrosine-protein kinase JAK1, sequence (P23458 whole entry): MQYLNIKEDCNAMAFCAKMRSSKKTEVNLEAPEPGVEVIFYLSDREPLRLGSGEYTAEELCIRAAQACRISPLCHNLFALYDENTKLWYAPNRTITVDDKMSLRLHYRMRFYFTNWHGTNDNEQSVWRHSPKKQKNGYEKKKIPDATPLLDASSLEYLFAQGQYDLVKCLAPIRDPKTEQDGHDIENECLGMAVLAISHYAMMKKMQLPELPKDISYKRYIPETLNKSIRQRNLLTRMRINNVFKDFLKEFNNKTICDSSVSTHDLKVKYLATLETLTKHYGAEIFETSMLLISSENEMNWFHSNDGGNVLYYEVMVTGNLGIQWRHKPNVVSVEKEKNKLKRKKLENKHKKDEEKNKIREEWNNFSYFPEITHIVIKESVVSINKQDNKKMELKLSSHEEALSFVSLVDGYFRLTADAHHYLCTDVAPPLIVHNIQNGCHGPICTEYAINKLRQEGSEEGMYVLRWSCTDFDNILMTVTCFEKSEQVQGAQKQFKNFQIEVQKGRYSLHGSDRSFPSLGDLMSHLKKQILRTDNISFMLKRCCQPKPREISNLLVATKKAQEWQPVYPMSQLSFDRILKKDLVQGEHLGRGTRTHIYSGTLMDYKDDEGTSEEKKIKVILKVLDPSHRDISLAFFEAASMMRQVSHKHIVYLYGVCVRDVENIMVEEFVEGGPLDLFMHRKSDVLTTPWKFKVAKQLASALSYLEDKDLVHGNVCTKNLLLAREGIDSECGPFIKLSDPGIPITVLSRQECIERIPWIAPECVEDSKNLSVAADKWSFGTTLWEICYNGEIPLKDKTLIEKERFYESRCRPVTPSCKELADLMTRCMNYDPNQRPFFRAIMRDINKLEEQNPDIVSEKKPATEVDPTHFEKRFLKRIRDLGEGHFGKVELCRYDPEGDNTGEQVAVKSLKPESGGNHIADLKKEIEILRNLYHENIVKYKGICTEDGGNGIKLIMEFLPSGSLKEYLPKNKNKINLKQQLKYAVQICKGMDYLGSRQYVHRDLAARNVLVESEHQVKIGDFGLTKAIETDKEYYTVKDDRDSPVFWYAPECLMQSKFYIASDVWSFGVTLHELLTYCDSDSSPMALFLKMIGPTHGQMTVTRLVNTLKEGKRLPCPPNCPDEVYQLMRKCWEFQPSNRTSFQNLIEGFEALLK

Row | Structure (SMILES) | IC50 [1] | IC50 [2]
1 | CCc1cc(O)c(F)cc1-c1ccc2c(-c3nc4c([nH]3)CCN(C(=O)c3ccc(C#N)nc3)CC4)n[nH]c2c1 | 1.4 nM | 3.4 nM
2 | CCc1cc(O)c(F)cc1-c1ccc2c(-c3nc4c([nH]3)CCN(Cc3ccc5ncccc5c3)C4)n[nH]c2c1 | 1.4 nM | 4.2 nM
